This note sets out measurements from patent publication US20240285634A1, “COMPOUND AND METHOD FOR TREATING CHEMOTHERAPY-ASSOCIATED GASTROINTESTINAL SIDE EFFECTS” (ONQUALITY PHARMACEUTICALS CHINA LTD., priority 2021, published 2024).

Assay [1] deals with Balb/c mice, diarrhea caused by continuous administration of a chemotherapeutic agent. The experiment in a line: Relieving effect on diarrhea caused by the continuous administration of a chemotherapeutic agent (Examples 365-384). Particulars: Fluorouracil (5-Fu) intraperitoneal injection 70 mg/kg once a day for 5 days, compound intraperitoneal injection 150 mg/kg single, cycle 9 days. It counts as in vivo. From the text:
Balb/c mice were fed for 1 week, and then divided into groups. The experiment was divided into a control group, a chemotherapeutic agent group, and a group of the compound as shown in Formula I, each of which comprised 10 mice, to perform the administration experiment, for which the administration dosage, mode, time and frequency were shown in Table 5. The control group: being injected or intragastrically administered with the same solvent as that used in the group of the compound as shown in Formula I (the administration mode and time were shown in Table 5), and then being injected or intragastrically administered with the same solvent as that used in the chemotherapeutic agent group (the administration mode was shown in Table 5); the chemotherapeutic agent group: being injected or intragastrically administered with the same solvent as that used in the group of the compound as shown in Formula I (the administration mode and time were shown in Table 5), and then being injected or intragastrically administered with the chemotherapeutic agent (the type, administration mode, time and dosage were shown in Table 5); the group of the compound as shown in Formula I: being injected or intragastrically administered with the compound as shown in Formula I (the administration mode and time were shown in Table 5), and then being administered with the chemotherapeutic agent (the type, administration mode, time and dosage were shown in Table 5).
The scoring of diarrhea can refer to the method of Akinobu Kurita (Cancer Chemother Pharmacol 2000; 46:211-20.), Grade 0): normal feces; Grade 1: mild diarrhea, the stools is slightly wet and soft; Grade 2: moderate diarrhea, loose stools and mild perianal contamination; Grade 3: severe diarrhea, watery stools and accompanied by severe perianal staining (see FIG. 1). It is regarded as effective remission when the diarrhea grading of mice in the group of the compound as shown in Formula I is reduced compared with the average diarrhea grading of mice in the chemotherapeutic agent group.
(§1) The diarrhea grading of mice was observed and recorded every day. At the end of the experiment, the number of mice in the group of the compound as shown in Formula I whose diarrhea grading was lower than that of mice in the chemotherapeutic agent group was recorded. Table 5 lists various animal experiment combinations of chemotherapeutic agents and the compound as shown in Formula I, as well as the corresponding experimental results. (Relative remission rate %=the number of mice in the group of the compound as shown in Formula I whose diarrhea has been effectively relieved/the total number of mice in the group of the compound as shown in Formula I*100%. The establishment rate of diarrhea model in the chemotherapeutic agent group was 50%-80%, that is, about 5-8 of 10 mice developed diarrhea during the experiment, and there were cases of individual mice death or not developing diarrhea.)

For assay [2], the system named is Chemotherapeutic agent-caused diarrhea models of Balb/c mice. Nature of the assay: Relieving effect on diarrhea caused by a chemotherapeutic agent (Examples 1-201). Format: in vivo.
Text: Construction of mouse animal models: Chemotherapeutic agent-caused diarrhea models of Balb/c mice were constructed according to the administration mode and frequency of the chemotherapeutic agent as shown in Table 3. After administration for several days, mice developed different extents of diarrhea symptoms (as shown in FIG. 1), which were similar to the conditions in human. Thus, chemotherapeutic agent-caused diarrhea models of mice are very good models to mimic diarrhea in human caused by the chemotherapeutic agent.
Balb/c mice were fed for 1 week, and then divided into groups. The experiment was divided into a control group, a chemotherapeutic agent group, and a group of the compound as shown in Formula I, each of which comprised 10 mice, to perform the administration experiment, for which the administration dosage, mode, time and frequency were shown in Table 3. The control group: being injected or intragastrically administered with the same solvent as that used in the group of the compound as shown in Formula I (the injection mode and time were shown in Table 3), and then being injected or intragastrically administered with the same solvent as that used in the chemotherapeutic agent group (the administration mode was shown in Table 3); the chemotherapeutic agent group: being injected or intragastrically administered with the same solvent as that used in the group of the compound as shown in Formula I (the administration mode and time were shown in Table 3), and then being injected or intragastrically administered with the chemotherapeutic agent (the type, administration mode and dosage were shown in Table 3); the group of the compound as shown in Formula I: being injected or intragastrically administered with the compound as shown in Formula I (the administration mode and time were shown in Table 3), and then being administered with the chemotherapeutic agent (the administration mode and dosage were shown in Table 3).
The scoring of diarrhea can refer to the method of Akinobu Kurita (Cancer Chemother Pharmacol 2000; 46:211-20.), Grade 0: normal feces; Grade 1: mild diarrhea, the stools is slightly wet and soft; Grade 2: moderate diarrhea, loose stools and mild perianal contamination; Grade 3: severe diarrhea, watery stools and accompanied by severe perianal staining (see FIG. 1). It is regarded as effective remission when the diarrhea grading of mice in the group of the compound as shown in Formula I is reduced compared with the average diarrhea grading of mice in the chemotherapeutic agent group.
as §1, with “3” for “5”, “50%-70%,” for “50%-80%,”, “5-7” for “5-8”

Structures can show the parent of a compound that is named as a salt.

As for `CN1CCN(c2ccc(Nc3ncc4cc5n(c4n3)C3(CCCCC3)CNC5=O)nc2)CC1` [Compound I hydrochloride, Trilaciclib dihydrochloride], the “Relative remission rate (%)” value came out at 60% in assay [1] (Example 373, 2 h before chemotherapeutic agent); 30% in assay [1] (Example 374, 4 h before chemotherapeutic agent); 10% in assay [1] (Example 375, 8 h before chemotherapeutic agent). In addition, the Relative remission rate in assay [2] (Ex 132, Fluorouracil 100 + irinotecan 200 mg/kg intraperitoneal single, compound 150 mg/kg intraperitoneal single 0.5 h before, cycle 8 days) is 30%; in assay [2] (Ex 133, Fluorouracil 100 + irinotecan 200 mg/kg intraperitoneal single, compound 150 mg/kg intraperitoneal single 6 h before, cycle 8 days) it was 60%; in assay [2] (Ex 134, Fluorouracil 100 + irinotecan 200 mg/kg intraperitoneal single, compound 150 mg/kg intraperitoneal single 12 h before, cycle 8 days), 50%; in assay [2] (Ex 161, Fluorouracil 50 + oxaliplatin 5 + irinotecan 50 + tetrahydrofolic acid 90 mg/kg intraperitoneal single, compound 150 mg/kg intraperitoneal single 0.5 h before, cycle 7 days) it was 70%; in assay [2] (Ex 162, Fluorouracil 50 + oxaliplatin 5 + irinotecan 50 + tetrahydrofolic acid 90 mg/kg intraperitoneal single, compound 150 mg/kg intraperitoneal single 12 h before, cycle 7 days) it was 40%; in assay [2] (Ex 194, Topotecan 10 mg/kg intraperitoneal single, compound 100 mg/kg oral single 4 h before, cycle 14 days), 50%. For the same molecule, the Relative remission rate in assay [2] (Ex 200, Gemcitabine and carboplatin 120 mg/kg intraperitoneal single, compound 100 mg/kg oral single 4 h before, cycle 8 days) is reported as 70%.

As to `CC(C)N1CCN(c2ccc(Nc3ncc4cc5n(c4n3)C3(CCCCC3)CNC5=O)nc2)CC1` [Compound IV hydrochloride, Lerociclibdihydrochloride], the Relative remission rate was 40% in assay [2] (Ex 115, Irinotecan (CPT-11) 240 mg/kg intraperitoneal single, compound 100 mg/kg intraperitoneal single 0.5 h before, cycle 11 days); 60% in assay [2] (Ex 116, Irinotecan (CPT-11) 240 mg/kg intraperitoneal single, compound 100 mg/kg intraperitoneal single 4 h before, cycle 11 days); 20% in assay [2] (Ex 117, Irinotecan (CPT-11) 240 mg/kg intraperitoneal single, compound 100 mg/kg intraperitoneal single 12 h before, cycle 11 days); 70% in assay [2] (Ex 188, Fluorouracil 50 + oxaliplatin 5 + irinotecan 50 + tetrahydrofolic acid 90 mg/kg intravenous single, compound 100 mg/kg intraperitoneal single 0.5 h before, cycle 7 days); 50% in assay [2] (Ex 189, Fluorouracil 50 + oxaliplatin 5 + irinotecan 50 + tetrahydrofolic acid 90 mg/kg intravenous single, compound 100 mg/kg intraperitoneal single 12 h before, cycle 7 days); 40% in assay [2] (Ex 201, Gemcitabine 120 + carboplatin 5 mg/kg intravenous single, compound 100 mg/kg oral single 24 h before, cycle 8 days).
